COc1cccc(C=O)c1O
solubility (mole fraction)
Conditions | 273.15 K | 278.15 K | 283.15 K | 288.15 K | 293.15 K | 298.15 K | 303.15 K
in ethanol | 0.0401 | 0.0526 | 0.0774 | 0.138 | 0.226 | 0.38 | 0.615
in n-propanol | 0.0312 | 0.0388 | 0.0552 | 0.0807 | 0.134 | 0.299 | 0.554
in water | – | 0.000268 | 0.000332 | 0.0004 | 0.000496 | 0.000578 | 0.000786

From BigSolDB 2.1
